Tests used:
Type in all cases: biochemical
[1] = target: Human plasma kallikrein (Homo sapiens (Human), UniProt P03952); experiment: Determination of the IC50 for plasma kallikrein (fluorogenic substrate H-DPro-Phe-Arg-AFC); conditions: class symbols A-D, read-out: IC50 (human PKal)
Method: The ability of the compounds of formula (I) to inhibit plasma kallikrein may be determined using the following biological assay:
Determination of the IC50 for Plasma Kallikrein
(§1) Plasma kallikrein inhibitory activity in vitro was determined using standard published methods (see e.g. Johansen et al., Int. J. Tiss. Reac. 1986, 8, 185; Shori et al., Biochem. Pharmacol., 1992, 43, 1209; Sturzebecher et al., Biol. Chem. Hoppe-Seyler, 1992, 373, 1025). Human plasma kallikrein (Protogen) was incubated at 25° C. with the fluorogenic substrate H-DPro-Phe-Arg-AFC and various concentrations of the test compound. Residual enzyme activity (initial rate of reaction) was determined by measuring the change in optical absorbance at 410 nm and the IC50 value for the test compound was determined.

[2] = target: Human KLK1 (Homo sapiens (Human), UniProt P06870); experiment: Determination of the IC50 for KLK1 (fluorogenic substrate H-DVal-Leu-Arg-AFC)
Human KLK1, sequence (P06870 25-262): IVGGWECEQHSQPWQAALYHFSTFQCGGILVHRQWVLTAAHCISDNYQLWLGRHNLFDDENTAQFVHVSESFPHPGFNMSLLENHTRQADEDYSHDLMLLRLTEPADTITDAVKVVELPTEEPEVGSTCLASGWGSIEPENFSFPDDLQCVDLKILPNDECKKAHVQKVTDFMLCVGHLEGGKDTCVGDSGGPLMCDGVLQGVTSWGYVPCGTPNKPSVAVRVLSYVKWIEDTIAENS
Method: Selected compounds were further screened for inhibitory activity against the related enzyme KLK1. The ability of the compounds of formula (I) to inhibit KLK1 may be determined using the following biological assay:
Determination of the IC50 for KLK1
as §1, with “KLK1” for “Plasma kallikrein”, “KLK1 (Callbiochem)” for “plasma kallikrein (Protogen)”, “H-DVal-Leu-Arg-AFC” for “H-DPro-Phe-Arg-AFC”

[3] = target: Human FXIa (Homo sapiens (Human), UniProt P03951); experiment: Determination of the % inhibition for FXIa (fluorogenic substrate Z-Gly-Pro-Arg-AFC; 40 μM or IC50)
Human FXIa, sequence (P03951 388-625): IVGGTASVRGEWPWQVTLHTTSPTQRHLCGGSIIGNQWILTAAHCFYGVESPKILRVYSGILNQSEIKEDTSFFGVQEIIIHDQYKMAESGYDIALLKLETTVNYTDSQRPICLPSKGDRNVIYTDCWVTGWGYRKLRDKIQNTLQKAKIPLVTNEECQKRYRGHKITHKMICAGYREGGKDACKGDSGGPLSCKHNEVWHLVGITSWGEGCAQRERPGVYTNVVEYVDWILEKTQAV
Human FXIa, sequence (P03951 19-387 partner): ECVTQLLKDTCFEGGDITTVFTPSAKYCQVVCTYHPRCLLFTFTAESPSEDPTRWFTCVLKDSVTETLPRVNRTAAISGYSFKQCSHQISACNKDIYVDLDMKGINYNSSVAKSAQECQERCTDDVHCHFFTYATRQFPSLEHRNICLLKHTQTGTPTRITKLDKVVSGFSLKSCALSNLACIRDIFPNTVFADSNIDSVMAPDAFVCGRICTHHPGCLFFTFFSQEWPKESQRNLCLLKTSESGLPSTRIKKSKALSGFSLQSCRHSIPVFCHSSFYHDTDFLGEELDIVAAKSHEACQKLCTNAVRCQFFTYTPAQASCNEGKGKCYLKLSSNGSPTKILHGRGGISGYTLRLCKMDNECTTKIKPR
Method: Selected compounds were further screened for inhibitory activity against the related enzyme FXIa. The ability of the compounds of formula (I) to inhibit FXIa may be determined using the following biological assay:
Determination of the % Inhibition for FXIa
FXIa inhibitory activity in vitro was determined using standard published methods (see e.g. Johansen et al., Int. J. Tiss. Reac. 1986, 8, 185; Shori et al., Biochem. Pharmacol., 1992, 43, 1209; Sturzebecher et al., Biol. Chem. Hoppe-Seyler, 1992, 373, 1025). Human FXIa (Enzyme Research Laboratories) was incubated at 25° C. with the fluorogenic substrate Z-Gly-Pro-Arg-AFC and 40 μM of the test compound (or alternatively at various concentrations of the test compound in order to determine IC50). Residual enzyme activity (initial rate of reaction) was determined by measuring the change in optical absorbance at 410 nm and the IC50 value for the test compound was determined.

Human plasma kallikrein, sequence (P03952 391-638): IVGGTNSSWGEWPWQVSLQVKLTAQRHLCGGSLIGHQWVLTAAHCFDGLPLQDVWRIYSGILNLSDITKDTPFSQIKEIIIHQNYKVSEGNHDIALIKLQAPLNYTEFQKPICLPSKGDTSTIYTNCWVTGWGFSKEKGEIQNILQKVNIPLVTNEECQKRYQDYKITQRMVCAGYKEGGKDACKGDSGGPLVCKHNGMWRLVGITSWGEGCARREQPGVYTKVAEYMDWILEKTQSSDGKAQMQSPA
Human plasma kallikrein, sequence (P03952 20-390 partner): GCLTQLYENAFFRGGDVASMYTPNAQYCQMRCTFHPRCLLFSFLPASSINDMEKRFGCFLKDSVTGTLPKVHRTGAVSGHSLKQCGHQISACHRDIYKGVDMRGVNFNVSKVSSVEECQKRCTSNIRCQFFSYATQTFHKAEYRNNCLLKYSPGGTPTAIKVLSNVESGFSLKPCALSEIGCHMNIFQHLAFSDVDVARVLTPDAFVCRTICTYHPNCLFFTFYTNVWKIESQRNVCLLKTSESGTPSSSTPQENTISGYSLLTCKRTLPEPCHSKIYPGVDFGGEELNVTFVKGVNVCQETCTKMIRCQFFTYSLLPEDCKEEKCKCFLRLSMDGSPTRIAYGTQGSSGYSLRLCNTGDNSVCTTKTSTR

IC50 [1] [µM] | IC50 [2] [µM] | IC50 [3] [µM] | Compound
< 0.01 | > 40 | > 40 | COCc1nn(Cc2ccc3c(c2)CN(C2CCC2)CC3)cc1C(=O)NCc1c(-n2cc(C)nn2)ccc(OC)c1F [Example 18, 1-((2-cyclobutyl-1,2,3,4-tetrahydroisoquinolin-7-yl)methyl)-N-(2-fluoro-3-methoxy-6-(4-methyl-1H-1,2,3-triazol-1-yl)benzyl)-3-(methoxymethyl)-1H-pyrazole-4-carboxamide]
0.03 to 0.1 | > 40 | > 40 | COCc1nn(Cc2ccc3c(c2Cl)CCN(C)C3)cc1C(=O)NCc1c(-n2cc(C)nn2)ccc(OC)c1F [Example 104, 1-[(5-chloro-2-methyl-3,4-dihydro-1H-isoquinolin-6-yl)methyl]-N-{[2-fluoro-3-methoxy-6-(4-methyl-1,2,3-triazol-1-yl)phenyl]methyl}-3-(methoxymethyl)pyrazole-4-carboxamide]
0.01 to 0.03 | > 40 | > 40 | COCc1nn(Cc2ccc3c(c2)CCOC3)cc1C(=O)NCc1c(-n2cc(C)nn2)ccc(OC)c1F [Example 68, 1-(3,4-dihydro-1H-2-benzopyran-6-ylmethyl)-N-{[2-fluoro-3-methoxy-6-(4-methyl-1,2,3-triazol-1-yl)phenyl]methyl}-3-(methoxymethyl)pyrazole-4-carboxamide]
< 0.01 | > 40 | 36.8 | COCc1nn(Cc2ccc3c(c2)CN(C2CC2)CC3)cc1C(=O)NCc1c(-n2ccc(C#N)n2)ccc(OC)c1F [Example 21, N-{[6-(3-cyanopyrazol-1-yl)-2-fluoro-3-methoxyphenyl]methyl}-1-[(2-cyclopropyl-3,4-dihydro-1H-isoquinolin-7-yl)methyl]-3-(methoxymethyl)pyrazole-4-carboxamide]
< 0.01 | > 40 | 34.2 | COCc1nn(Cc2cnc3c(c2)CCN(C)C3)cc1C(=O)NCc1c(-n2cc(C)nn2)ccc(OC)c1F [Example 102, N-{[2-fluoro-3-methoxy-6-(4-methyl-1,2,3-triazol-1-yl)phenyl]methyl}-3-(methoxymethyl)-1-[(7-methyl-6,8-dihydro-5H-1,7-naphthyridin-3-yl)methyl]pyrazole-4-carboxamide]
0.01 to 0.03 | > 40 | > 40 | COCc1nn(Cc2ccc3c(c2)CN(C2CC2)CC3)cc1C(=O)NCc1c(-n2cnc(C(F)(F)F)n2)ccc(OC)c1F [Example 20, 1-[(2-cyclopropyl-3,4-dihydro-1H-isoquinolin-7-yl)methyl]-N-({2-fluoro-3-methoxy-6-[3-(trifluoromethyl)-1,2,4-triazol-1-yl]phenyl}methyl)-3-(methoxymethyl)pyrazole-4-carboxamide]
< 0.01 | > 40 | > 40 | COc1ccc(-n2cc(C)nn2)c(CNC(=O)c2cnn(Cc3ccc4c(c3)CN(C)CC4)c2)c1F [Example 3, N-{[2-fluoro-3-methoxy-6-(4-methyl-1,2,3-triazol-1-yl)phenyl]methyl}-1-[(2-methyl-3,4-dihydro-1H-isoquinolin-7-yl)methyl]pyrazole-4-carboxamide]
< 0.01 | > 40 | 23.1 | COCc1nn(Cc2ccc3c(c2)CN(C)CC3(F)F)cc1C(=O)NCc1c(-n2cc(C)nn2)ccc(OC)c1F [Example 106, 1-[(4,4-difluoro-2-methyl-1,3-dihydroisoquinolin-7-yl)methyl]-N-{[2-fluoro-3-methoxy-6-(4-methyl-1,2,3-triazol-1-yl)phenyl]methyl}-3-(methoxymethyl)pyrazole-4-carboxamide]
0.03 to 0.1 | > 40 | > 40 | COCc1nn(Cc2ccc3c(c2)C(C)(C)N(C)C3)cc1C(=O)NCc1c(-n2cc(C)nn2)ccc(OC)c1F [Example 124, N-{[2-fluoro-3-methoxy-6-(4-methyl-1,2,3-triazol-1-yl)phenyl]methyl}-3-(methoxymethyl)-1-[(2,3,3-trimethyl-1H-isoindol-5-yl)methyl]pyrazole-4-carboxamide]
0.01 to 0.03 | > 40 | > 40 | COc1ccc(-n2cc(C)nn2)c(CNC(=O)c2cn(Cc3ccc4c(c3)CN(C(C)C)C4)c(C3CC3)n2)c1F [Example 150, 2-cyclopropyl-N-{[2-fluoro-3-methoxy-6-(4-methyl-1,2,3-triazol-1-yl)phenyl]methyl}-1-[(2-isopropyl-1,3-dihydroisoindol-5-yl)methyl]imidazole-4-carboxamide]
0.03 to 0.1 | > 40 | > 40 | COCc1nn(Cc2cnc3c(c2Cl)CCN(C)C3)cc1C(=O)NCc1c(-n2cc(C)nn2)ccc(OC)c1F [Example 64, 1-[(4-chloro-7-methyl-6,8-dihydro-5H-1,7-naphthyridin-3-yl)methyl]-N-{[2-fluoro-3-methoxy-6-(4-methyl-1,2,3-triazol-1-yl)phenyl]methyl}-3-(methoxymethyl)pyrazole-4-carboxamide]
0.03 to 0.1 | > 40 | > 40 | COCc1nn(Cc2ccc3c(c2)C2CCC3N2C(C)C)cc1C(=O)NCc1c(-n2cc(C)nn2)ccc(OC)c1F (centres unmarked) [Example 123, N-{[2-fluoro-3-methoxy-6-(4-methyl-1,2,3-triazol-1-yl)phenyl]methyl}-1-({11-isopropyl-11-azatricyclo[6.2.1.0^{2,7}]undeca-2(7),3,5-trien-4-yl}methyl)-3-(methoxymethyl)pyrazole-4-carboxamide]
< 0.01 | > 40 | 19.6 | COc1ccc(-n2cnc(C(F)(F)F)n2)c(CNC(=O)c2cnn(Cc3ccc4c(c3)CN(C(C)C)CC4)c2)c1F [Example 32, N-({2-fluoro-3-methoxy-6-[3-(trifluoromethyl)-1,2,4-triazol-1-yl]phenyl}methyl)-1-[(2-isopropyl-3,4-dihydro-1H-isoquinolin-7-yl)methyl]pyrazole-4-carboxamide]
0.03 to 0.1 | > 40 | > 40 | COCc1nn(Cc2ccc3c(c2)CCN(C2CC2)C3)cc1C(=O)NCc1c(-n2cnc(C(F)F)n2)ccc(OC)c1F [Example 47, 1-[(2-cyclopropyl-3,4-dihydro-1H-isoquinolin-6-yl)methyl]-N-({6-[3-(difluoromethyl)-1,2,4-triazol-1-yl]-2-fluoro-3-methoxyphenyl}methyl)-3-(methoxymethyl)pyrazole-4-carboxamide]
0.01 to 0.03 |  |  | COCc1nn(Cc2ccc3c(c2)C(C)(C)N(C)CC3)cc1C(=O)NCc1c(-n2cc(C)nn2)ccc(OC)c1F [Example 129, N-{[2-fluoro-3-methoxy-6-(4-methyl-1,2,3-triazol-1-yl)phenyl]methyl}-3-(methoxymethyl)-1-[(1,1,2-trimethyl-3,4-dihydroisoquinolin-7-yl)methyl]pyrazole-4-carboxamide]
0.01 to 0.03 |  |  | COc1ccc(-n2cc(C)nn2)c(CNC(=O)c2cn(Cc3ccc4c(n3)CN(C)CC4)nc2C(F)(F)F)c1F [Example 131, N-{[2-fluoro-3-methoxy-6-(4-methyl-1H-1,2,3-triazol-1-yl)phenyl]methyl}-1-[(7-methyl-5,6,7,8-tetrahydro-1,7-naphthyridin-2-yl)methyl]-3-(trifluoromethyl)-1H-pyrazole-4-carboxamide]
< 0.01 |  |  | COc1ccc(-n2cc(C)nn2)c(CNC(=O)c2cn(Cc3ccc4c(c3)CN(C)CC4)nc2C(F)F)c1F [Example 33, 3-(difluoromethyl)-N-{[2-fluoro-3-methoxy-6-(4-methyl-1,2,3-triazol-1-yl)phenyl]methyl}-1-[(2-methyl-3,4-dihydro-1H-isoquinolin-7-yl)methyl]pyrazole-4-carboxamide]
0.03 to 0.1 |  |  | COCc1nn(Cc2ccc3c(c2)C(C)(C)NCC3)cc1C(=O)NCc1c(-n2cc(C)nn2)ccc(OC)c1F [Example 128, 1-[(1,1-dimethyl-3,4-dihydro-2H-isoquinolin-7-yl)methyl]-N-{[2-fluoro-3-methoxy-6-(4-methyl-1,2,3-triazol-1-yl)phenyl]methyl}-3-(methoxymethyl)pyrazole-4-carboxamide]
0.01 to 0.03 |  |  | COCc1nn(Cc2ccc3c(c2)CNCC3(C)C)cc1C(=O)NCc1c(-n2cc(C)nn2)ccc(OC)c1F [Example 130, 1-[(4,4-dimethyl-2,3-dihydro-1H-isoquinolin-7-yl)methyl]-N-{[2-fluoro-3-methoxy-6-(4-methyl-1,2,3-triazol-1-yl)phenyl]methyl}-3-(methoxymethyl)pyrazole-4-carboxamide]

— patent publication US11613527B2, “Enzyme inhibitors” (KalVista Pharmaceuticals Limited, priority 2019, dated 2023)
